Reference: US20020025332A1, “Cosmetic compositions containing substituted sulfonamide derivatives” (Unilever Home & Personal Care USA, Division of Conopco, Inc., priority 2000, published 2002)
Several values for one entry are separate records, joined by “and”; a condition that tells them apart may be missing. Equal values may be shown once. Read-outs that look alike come from different tables or passages of the source.

System: human sebocytes
Assay: Sebum suppression: 14C-acetate label remaining in cultured human sebocytes after treatment
Type: cell-based
Details: for activity at 1 µM / activity at 10 µM / activity at 100 µM / activity at 0.1 µM: read-out: % of Control; for sebum suppressive activity in the presence of retinol: in the presence of retinol / a retinoid versus compound alone
Experimental: Compounds A through K were tested for their potential to suppress sebum expression, alone or in the presence of a retinoid.
Secondary cultures of human sebocytes obtained from an adult […] were grown in 48-well tissue culture plates (Costar Corp.; Cambridge, Mass.) or 96-well tissue culture plates (Packard Co.; Meriden, Conn.) until confluent. Sebocyte growth medium consisted of Clonetics Keratinocyte Basal Medium (KBM) supplemented with 14 μg/ml bovine pituitary extract, 0.4 μg/ml hydrocortisone, 5 μg/ml insulin, […], 1.2×10^-10 M cholera toxin, 100 units/ml penicillin, and 100 μg/ml streptomycin. All cultures were incubated at 37° C. in the presence of 7.5% CO2. Medium was changed three times per week.
On the day of experimentation, the growth medium was removed and the sebocytes washed three times with sterile Dulbecco's Modified Eagle Medium (DMEM; phenol red free). Fresh DMEM was added to each sample (duplicates, triplicates, or quadruplicates depending on the experiment) with 5 microliter of test agent solubilized in ethanol either alone or in the presence of one or 10 micromolar of retinol. Controls consisted of addition of ethanol alone, retinol alone, or phenol red, which has estrogen-like activity and is included as a positive control.
Each plate was returned to the incubator for 20 hours followed by the addition of 14C-acetate buffer (5 mM final concentration, 56 mCi/mmol specific activity). Sebocytes were returned to the incubator for four hours afterwhich each culture was rinsed three times with phosphate buffered saline to remove unbound label. Radioactive label remaining in the sebocytes was harvested and counted using a Beckman scintillation counter.

[1] = 1 μM test agent + 10 μM Retinol
[2] = 10 μM test agent + 10 μM Retinol
[3] = Homo sapiens, 1 μM test agent + 1 μM Retinol
[4] = Homo sapiens, 1 μM test agent alone
[5] = Homo sapiens, 10 μM test agent + 1 μM Retinol
[6] = Homo sapiens, 10 μM test agent + 10 μM Retinol
[7] = Homo sapiens, 10 μM test agent alone
[8] = Homo sapiens, 100 μM test agent + 10 μM Retinol
[9] = Homo sapiens, 100 μM test agent alone
[10] = 10 μM test agent + 1 μM Retinol
[11] = Homo sapiens, 1 μM test agent + 10 μM Retinol
[12] = Homo sapiens, 100 μM test agent + 1 μM Retinol

Row | SMILES | % of Control [1] | % of Control (1 μM test agent alone, 1 µM) | % of Control [2] | % of Control (10 μM test agent alone, 10 µM) | activity at 1 µM [3] | activity at 1 µM [4] | activity at 10 µM [5] | activity at 10 µM [6] | activity at 10 µM [7] | activity at 100 µM [8] | activity at 100 µM [9] | % of Control (1 μM test agent + 1 μM Retinol) | % of Control [10] | activity at 1 µM [11] | sebum suppressive activity in the presence of retinol | further results
1 | CN(C)c1cccc(NS(=O)(=O)c2ccc3ccccc3c2)c1 [Compound J] | 67.9% and 93.8% | 55.6% | 69.8% | 81.7% | 74.1% | 74.6% | 64.7% | 63.9% | 67.5% | 2% | 1.2% | – | – | – | – | –
2 | CC(O)c1cccc(NS(=O)(=O)c2cccs2)c1 (stereo not drawn) [Compound E] | 110.2% | 103.3% | – | – | 103% | 94.6% | – | – | – | – | – | 98.3% | 5.7% and 1.6% | 102% | – | –
3 | O=S1(=O)OC(c2ccc(O)cc2)(c2ccc(O)cc2)c2ccccc21 [Phenol Red, phenol red, reference compound] | – | – | – | – | – | – | – | – | – | – | – | – | – | – | – | % of Control (28 μM (positive control) alone, 28 µM): 74.7% and 68.4% and 84.4%; % of Control (280 μM (positive control) alone): 54.2% and 52.5%; activity at 28 µM (Homo sapiens, 28 μM (positive control) alone): 67.6%
4 | O=[N+]([O-])c1cc(S(=O)(=O)Nc2ccc3c(c2)OCCO3)ccc1Cl [Compound F] | 74.2% | 80.7% | – | – | – | 79.6% | – | 1.2% | – | – | – | 100.4% and 75.9% | 1.8% and 0.6% | 89.1% | – | –
5 | CC(O)c1cccc(NS(=O)(=O)c2ccc(Cl)c([N+](=O)[O-])c2)c1 (stereo not drawn) [Compound C] | – | – | – | – | 87.7% | 101% | 95.5% | 84.8% | 79% | 5.3% | 37.8% | – | – | 77.5% | improved sebum suppressive activity | activity at 100 µM [12]: 20.8%
6 | COc1ccc(S(=O)(=O)Nc2cccc(C(C)O)c2)cc1 (stereo not drawn) [Compound A] | 94.6% | 100.7% | – | 91.9% | 112% | 111% | 46% | – | 109% | – | – | 102.5% | 65.8% | 101% | improved sebum suppressive activity | –
7 | CC1=C(/C=C/C(C)=C/C=C/C(C)=C/CO)C(C)(C)CCC1 [Retinol, retinol, reference compound] | – | 85.5% and 96.5% and 99.9% and 103.7% and 99.3% and 93.9% | – | – | – | 98.4% | – | – | – | – | – | – | – | – | – | sebum suppressive activity (alone, 1 or 10 μM): inactive
8 | CN(C)c1cccc(NS(=O)(=O)c2ccc(Cl)c([N+](=O)[O-])c2)c1 [Compound H] | 86.8% and 78.8% and 53.6% and 91.1% | 96.1% and 71.7% and 66.6% and 83.4% | 80.3% and 76.1% and 79.2% and 118.0% | – | – | – | – | – | – | 3.9% | 44.2% | 88.0% and 90.2% and 65.1% | – | – | – | –
9 | CC(O)c1cccc(NS(=O)(=O)c2c(F)c(F)c(F)c(F)c2F)c1 (stereo not drawn) [Compound B] | 96.5% | 98.4% | 84.8% | 89.3% | 90.9% | 79.8% | 80.6% | 84.4% | 95.4% | 72.2% | 74.2% | 94.7% | 90.1% | 96.4% | – | activity at 100 µM [12]: 75.3%
10 | CC(O)c1cccc(NS(=O)(=O)c2cccc3c(N(C)C)cccc23)c1 (stereo not drawn) [Compound D] | 102.8% | 126.4% and 102.4% | – | 71.6% and 43.3% | 102% | – | 60.8% | – | – | 1.2% | 6.7% | – | – | 89.1% | improved sebum suppressive activity | –
11 | O=S(=O)(Nc1ccc2c(c1)OCCO2)c1ccc2ccccc2c1 [Compound G] | – | 82.0% | 13.1% | 45.7% and 25.0% | – | 67.5% | 24.8% | 17.9% | – | – | – | – | 39.9% | – | improved sebum suppressive activity | activity at 0.1 µM (Homo sapiens, 0.1 μM test agent + 1 μM Retinol): 103%; activity at 0.1 µM (Homo sapiens, 0.1 μM test agent + 10 μM Retinol): 94.1%; activity at 0.1 µM (Homo sapiens, 0.1 μM test agent alone, 14C-acetate label in sebocytes): 101%
